Reference: patent US12257280B2, “Composition for preventing or treating muscular diseases, containing, as active ingredient, Glycyrrhiza uralensis extract or compound isolated therefrom” (NEO CREMAR CO., LTD., priority 2019, dated 2025)

What was measured:
[1] = system: C2C12 cells; experiment: Myoblast proliferation verification (MTT assay) in C2C12 cells; format: cell-based, mouse; settings: for increased proliferation of cells compared to untreated cells: isolated final compounds, 0.5 ng/ml, 1 day, MTT (FIG. 7a)
Description: C2C12 cells, a mouse myoblast cell line, were cultured in Dulbecco's Modified Eagle's Medium (DMEM) containing 10% Fetal bovine serum (FBS) and 1% Penicillin/streptomycin (P/S).
To verify cell proliferation, the cell culture medium was removed and the cells was washed with DMEM, and then 500 μl of MTT reagent (0.5 mg/ml) dissolved in phosphate buffered saline (PBS) was added to each well and left for 1 hour at 37° C. The reaction solution was removed and 1000 μl of dimethyl sulfoxide (DMSO) was added to each well. Purple formazan crystals were completely dissolved in DMSO and absorbance was measured at 540 nm.

[2] = system: C2C12 cells; experiment: Differentiation of myoblasts into myotubes (Giemsa stain, fusion index); format: cell-based, mouse
Description: The medium was changed every 2 days and the cells were cultured at 37° C. The medium of the cells was removed and the cells were washed with PBS. After washing, a 1:1 volume ratio of methanol:PBS was treated and then fixed for 2 minutes. Additionally, a 2:1 volume ratio of methanol:PBS reagent was added, followed by further fixation for 2 minutes. After 2 minutes, 0.04% Giemsa reagent was added, allowed to stand for 30 minutes, washed with PBS after 30 minutes, and then the appearance of the cells was observed under a microscope, and three photos of the cells were taken (300×). In the photographs taken, the number of fused nuclei in the myotube cells was counted, the total number of nuclei was counted, and the number of fused nuclei was divided by the total number of nuclei to calculate % value.

[3] = system: C57BL/6 mice; experiment: Muscle regeneration effect in mice with or without cardiotoxin (CTX) injection into gastrocnemius muscle; format: in vivo, mouse
Description: In order to observe the muscle regeneration effect according to the treatment of hot water extract of licorice or the final substance liquiritigenin, the mice were ingested with licorice hot water extract or liquiritigenin and Cardiotoxin (CTX) was/was not injected into the muscle and then the morphology and regeneration of the muscles were observed. C57BL/6 mice were ingested with licorice hot water extract (100 mg/kg) or liquiritigenin (15 mg/kg) and […] cardiotoxin was injected into the gastrocnemius muscle. After cardiotoxin injection, licorice hot water extract or liquiritigenin was ingested every day, and muscle tissue was sampled 7 days after non-injection or injection of cardiotoxin. The diameter (μm) of the muscle secured 7 days after non-injection or injection of cardiotoxin was measured using an image J program.

[4] = isolated final compounds, 0.25 ng/ml (FIG. 7b)
[5] = purchased compounds, 0.25 ng/ml (FIG. 7c)
[6] = purchased compound, 15 mg/kg ingested daily

| SMILES | increased proliferation of cells compared to untreated cells [1] | proliferation of cells increased compared to non-treated cells ([1]; purchased compound, 1 ng/ml (FIG. 7c)) | myotube formation and fusion index increase [2, 4] | myotube formation and fusion index increase ([2]; purchased compounds (FIG. 7d)) | proliferation of cells increased compared to non-treated cells [1, 5] | diameter of the regenerated muscle ([3]; 15 mg/kg, CTX-injected, 7 days, not ingested 78±4) | muscle diameter (muscle fiber size) ([3]; 15 mg/kg, second pair of values, apparently non-injected muscle, not ingested 124±4) | body and gastrocnemius muscle weights vs non-treated controls [3, 6] | muscle mass reductions vs non-treated controls [3, 6] |
| --- | --- | --- | --- | --- | --- | --- | --- | --- | --- |
| COc1c(/C=C/C(=O)c2ccc(O)cc2)ccc(O)c1O [licochalcone B, Licochalcone B] | 11% | 11% | 19% | 20% | – | – | – | – | – |
| O=C1C[C@@H](c2ccc(O)cc2)Oc2cc(O)ccc21 [liquiritigenin, Liquiritigenin] | 10% | – | 13% | 20% | 5% | 91±3 μm | 139±4 μm | similar | less |
| COc1c(/C=C/C(=O)c2ccc(O)c(O)c2)ccc(O)c1O [tetrahydroxymethoxychalcone, Tetrahydroxy methoxychalcone] | 8% | – | 28% | 23% | 5% | – | – | – | – |
